# Assay results taken from patent US10813911B2, “Methods of treating and/or preventing chronic obstructive pulmonary disease” (UNIVERSITE DE BORDEAUX, priority 2015, dated 2020).
# What was measured:
# Type in all cases: cell-based, human
# [1] = system: fibrocytes; assay: fibrocyte migration in response to recombinant chemokine (CXCL12, CCL11), modified Boyden chamber assay
# Procedure: (§1) Purification of nonadherent non-T (NANT) cells was performed. Briefly, peripheral blood mononuclear cells (PBMC) were separated from whole blood by Ficoll-Hypaque density gradient centrifugation. After the first centrifugation at 150 g for 15 min, the top plasma layer was harvested and kept at −80° C. for further analysis. Mononuclear cells at the interface were harvested, washed once with 1×PBS. Erythrocyte lysis was performed by adding 20 ml of hypotonic 0.2% NaCl solution during 30s, followed by adding 20 ml of 1.6% NaCl to end with an isotonic solution. Mononuclear cells were again washed with 1×PBS, resuspended in Dulbecco's modified Eagle medium (DMEM), 4.5 g/l glucose, L-glutamine, supplemented with 20% fetal bovine serum (FBS), penicillin/streptomycin and MEM non essential amino acid and incubated 1 h at 37° C. The non-adherent mononuclear cell fraction was taken and washed in cold 1×PBS 0.5% BSA, 2 mM EDTA. T-cells were further depleted with anti-CD3 monoclonal antibody (Miltenyi Biotech). At least 0.2×10^6 nonadherent non-T (NANT) cells were distributed in each FACS tube and fixed overnight with Cytofix/Cytoperm (eBioscience).
# Fibrocyte migration was assessed using a modified Boyden chamber assay. The transwell inserts (pore size 8 μm) and the wells were coated for 1 h at room temperature with poly-lysine-ethylene glycol (PEG-PLL, Susos) to prevent cell adhesion. The inserts and the wells were rinsed with PBS. 0,3.10^6 nonadherent non-T (NANT) cells resuspended in 0.2 ml […] DMEM, 4.5 g/l glucose, L-glutamine, supplemented with ITS, penicillin/streptomycin and MEM non essential amino acid were added to the upper compartment of each well. […] The fraction of migratory fibrocytes was defined by the ratio between the number CD45+coll I+ cells counted in the bottom chamber divided by the number of CD45+coll I+ cells added in the upper compartment. […]
# [2] = system: fibrocytes obtained from exacerbating COPD patients; assay: plasma-induced fibrocyte migration, modified Boyden chamber assay
# Procedure: as §1
# (§2) Fibrocyte migration was assessed using a modified Boyden chamber assay. The transwell inserts (pore size 8 μm) and the wells were coated for 1 h at room temperature with poly-lysine-ethylene glycol (PEG-PLL, Susos) to prevent cell adhesion. The inserts and the wells were rinsed with PBS. 0,3.10^6 nonadherent non-T (NANT) cells resuspended in 0.2 ml […] DMEM, 4.5 g/l glucose, L-glutamine, supplemented with ITS, penicillin/streptomycin and MEM non essential amino acid were added to the upper compartment of each well. When indicated, NANT cells were pretreated for 1 h at 37° by 25 μg/ml plerixafor (Sigma-Aldrich) or 10 μM SB 328437 (R&D Systems) before being added to the upper compartment. Recombinant human CXCL12 (25 ng/ml to 200 ng/ml; R&D Systems), recombinant human CCL11 (25 ng/ml to 200 ng/ml; R&D Systems) or plasma (50% dilution) extracted from blood coming from COPD V1 patient or control subject was added to the bottom compartment of each well. After about 12 h, the content of bottom compartment was removed to assess fibrocyte migration by flow cytometry using double labeling CD45-collagen I. To obtain absolute values of migratory cells, flow cytometric counts for each condition were obtained during a constant predetermined time period (1 min). The fraction of migratory fibrocytes was defined by the ratio between the number CD45+coll I+ cells counted in the bottom chamber divided by the number of CD45+coll I+ cells added in the upper compartment. These values were normalized to the fraction of migratory fibrocytes obtained in the basal condition (medium only).
# [3] = system: fibrocytes obtained from normal subjects; assay: as above
# Procedure: as §1, §2
compound,measurement,setting,value
c1cc(CN2CCCNCCNCCCNCC2)ccc1CN1CCCNCCNCCCNCC1 [Plerixafor],fibrocyte migration in response to CXCL12 in presence of antagonist,"[1]; CXCL12 alpha-induced migration, cells pretreated 1 h with 25 μg/ml plerixafor, FIG. 5D",completely abolished
same,plasma-induced recruitment of fibrocytes,"[2]; plasma of exacerbating COPD patients (50% dilution), cells pretreated 1 h with 25 μg/ml plerixafor, about 12 h, FIG. 5A",significant reduction
same,plasma-induced migration of fibrocytes,"[3]; fibrocytes from normal (control) subjects, plasma of exacerbating COPD patients (50% dilution), cells pretreated 1 h with 25 μg/ml plerixafor, about 12 h, FIG. 5A",no significant reduction
"COC(=O)[C@H](Cc1ccc([N+](=O)[O-])cc1)NC(=O)c1ccc2ccccc2c1 [SB 328437, (S)-methyl-2-naphthoylamino-3-(4-nitrophenyl) propionate]",plasma-induced migration of fibrocytes,"[2]; plasma of exacerbating COPD patients, cells pretreated 1 h with 10 μM SB 328437, Figure E3A (FIG. 8A)",not affected
same,plasma-induced migration of fibrocytes,"[3]; fibrocytes from control subjects, plasma of exacerbating COPD patients, cells pretreated 1 h with 10 μM SB 328437, Figure E3A (FIG. 8A)",not affected
"CXCL12 alpha: recombinant human CXCL12 (R&D Systems), chemokine ligand of CXCR4",migration of fibrocytes from exacerbating COPD patient compared to fibrocytes from control subjects,"[1]; 100 ng/ml chemokine, FIG. 5C",significantly higher migration
same,migratory response of fibrocytes to increasing concentrations of chemokine,"[1]; recombinant human chemokine 25 ng/ml to 200 ng/ml in bottom compartment, about 12 h, FIG. 5C, Figure E3C",induced a significant fibrocytes migration in a dose-dependent manner
